Reference: patent publication US11780841B2, “3,6-methano-1H-pyrrolo[3,2-b]pyridine and 3,6-methano-1H-pyrrolo[3,2-c]pyridine compounds and medicaments using same” (priority 2018, dated 2023)

What follows are compounds tested on recombinant rabies virus 1088 strain expressing Gaussia Luciferase (GLuc) (1088/GLuc). Conditions: read-out: Anti-rabies activity.
Assay type: cell-based

Row | Structure (SMILES) | IC50 [µM]
1 | CCCCCCNC(=O)[C@@]12C[C@@H]3CN(CCC(C)C)[C@@H]([C@@H]3CN1)[C@H]2Cc1ccc(O)cc1 (relative stereo) [IF-583] | < 5
2 | Cc1ccc(CN2C[C@H]3C[C@@]4(C(=O)NCc5ccccc5)[C@H](CC(C)C)[C@@H]2[C@@H]3CN4C(=O)OCc2ccccc2)cc1 [IF-862] | 5 to 10
3 | Cc1ccc(CN2C[C@@H]3C[C@@H]4CN(C(=O)CC(C)C)[C@]3(C(=O)NCc3ccccc3)[C@@H]2[C@@H]4CC(C)C)cc1 (relative stereo) [IB-883] | < 5
4 | CC(C)CCNC(=O)[C@@]12C[C@@H]3CN(CCc4ccccc4)[C@@H]([C@@H]3CN1)[C@H]2Cc1ccc(O)cc1 [IF-707] | < 5
5 | Cc1cccc(C[C@@H]2[C@@H]3[C@@H]4CN[C@@]2(C(=O)NCc2ccccc2)C[C@@H]4CN3CC(C)C)c1 (relative stereo) [IF-13] | 10 to 30
6 | O=C(NCCc1ccccc1)[C@@]12C[C@@H]3CN(Cc4ccccc4)[C@@H]([C@@H]3CN1)[C@H]2Cc1ccc(O)cc1 [IF-722] | < 5
7 | CC(C)C[C@@H]1[C@H]2CN[C@@]3(C(=O)NCc4ccccc4)[C@@H](C2)CN(Cc2ccc(O)cc2)[C@@H]13 [IB-787] | 10 to 30
8 | CC(C)CN1CC2CC3CNC2(C(=O)NCCC(N)=O)C1C3CCc1ccccc1 (centres unmarked) [IB-539] | 10 to 30
9 | CC(C)CC[C@@H]1[C@H]2CN[C@@]3(C(=O)NCC(C)C)[C@@H](C2)CN(CC(C)C)[C@@H]13 [IB-378] | < 5
10 | CC(C)CCC1C2CNC3(C(=O)NCCc4ccccc4)C(C2)CN(CCO)C13 (centres unmarked) [IB-531] | 10 to 30
11 | CC(C)CC[C@@H]1[C@@H]2[C@@H]3CN[C@@]1(C(=O)NCC(C)C)C[C@@H]3CN2CC(C)C [IF-412] | < 5
12 | CC(C)CNC(=O)[C@@]12C[C@@H]3CN(Cc4ccc(F)cc4)[C@@H]([C@@H]3CN1)[C@H]2CC(C)C [IF-654] | < 5
13 | CC(C)C[C@@H]1[C@H]2CN[C@@]3(C(=O)NCc4ccccc4)[C@@H](C2)CN(Cc2ccc(N(C)C)cc2)[C@@H]13 [IB-873] | 5 to 10
14 | CC(C)CCN1C[C@H]2C[C@]3(C(=O)NCCO)NC[C@H]2[C@H]1[C@H]3Cc1cccc2ccccc12 [IF-611] | 10 to 30
15 | CC(C)CCNC(=O)[C@@]12C[C@@H]3CN(CCO)[C@@H]([C@@H]3CN1)[C@H]2Cc1cccc2ccccc12 [IF-660] | 10 to 30
16 | O=C(NCc1ccc(F)cc1)C12NCC3CC1CN(CCO)C2C3Cc1ccc(O)cc1 (centres unmarked) [IB-549] | 10 to 30
17 | CC(C)C[C@@H]1[C@H]2CN[C@@]3(C(=O)NCCO)[C@@H](C2)CN(Cc2ccc(F)cc2)[C@@H]13 [IB-650] | 10 to 30
18 | Cc1ccc(C[C@@H]2[C@@H]3[C@@H]4CN[C@@]2(C(=O)NCc2ccccc2)C[C@@H]4CN3CC(C)C)cc1 (relative stereo) [IF-14] | 10 to 30
19 | CC(C)CC[C@@H]1[C@H]2CN[C@@]3(C(=O)NC(C)C)[C@@H](C2)CN(Cc2ccc(O)cc2)[C@@H]13 [IB-501] | < 5
20 | NC(=O)CCNC(=O)C12NCC3CC1CN(Cc1ccc(F)cc1)C2C3Cc1cccc2ccccc12 (centres unmarked) [IB-525] | 10 to 30
21 | COc1ccc(CN2CC3CC4(C(=O)NCc5ccccc5)N=CC3C2C4CC(C)C)cc1 (centres unmarked) [IIF-85] | 5 to 10
22 | CC(C)C[C@@H]1[C@@H]2[C@@H]3CN[C@@]1(C(=O)NCCO)C[C@@H]3CN2Cc1cccc2ccccc12 [IF-604] | 10 to 30
23 | N=C(N)NCCCNC(=O)[C@@]12C[C@@H]3CN(Cc4cccc5ccccc45)[C@@H]([C@@H]3CN1)[C@H]2Cc1ccccc1 [IF-386] | 10 to 30

Row | Structure (SMILES) | IC50 [µM]
24 | CC(C)CC[C@@H]1[C@H]2CN[C@@]3(C(=O)NCCCNC(=N)N)[C@@H](C2)CN(CC2CCCCC2)[C@@H]13 [IB-361] | 10 to 30
25 | CC(C)CCN1C[C@@H]2C[C@@H]3CN[C@]2(C(=O)NCc2ccc(F)cc2)[C@@H]1[C@@H]3CCC(=O)O [IB-386] | 10 to 30
26 | CC(C)CN1C[C@H]2C[C@]3(C(=O)NCCc4ccccc4)NC[C@H]2[C@H]1[C@H]3Cc1ccc(O)cc1 (relative stereo) [IF-567] | 10 to 30
27 | O=C(NCc1ccc(F)cc1)[C@]12NC[C@H]3C[C@H]1CN(CCO)[C@H]2[C@@H]3CCc1ccccc1 [IB-492] | < 5
28 | CC(C)CN1C[C@@H]2C[C@@H]3CN[C@]2(C(=O)NCc2ccc(F)cc2)[C@@H]1[C@@H]3Cc1ccc(O)cc1 [IB-498] | < 5
29 | CC(C)CNC(=O)[C@]12NC[C@H]3C[C@H]1CN(Cc1ccc(O)cc1)[C@H]2[C@@H]3CCCNC(=N)N [IB-203] | 10 to 30
30 | CC(C)C[C@@H]1[C@@H]2[C@@H]3CN[C@@]1(C(=O)NCc1cccc4ccccc14)C[C@@H]3CN2CC(C)C [IF-726] | 10 to 30
31 | CC(C)CNC(=O)[C@]12NC[C@@H]3C[C@H]1CN(CC(C)C)[C@H]2[C@@H]3Cc1ccccc1 (relative stereo) [IB-3] | 10 to 30
32 | CC(C)CCNC(=O)[C@]12NC[C@H]3C[C@H]1CN(CC(C)C)[C@H]2[C@@H]3CCCNC(=N)N [IB-192] | < 5
33 | O=C(O)CC[C@@H]1[C@H]2CN[C@@]3(C(=O)NCc4cccc5ccccc45)[C@@H](C2)CN(CCO)[C@@H]13 [IB-425] | 10 to 30
34 | N=C(N)NCCCNC(=O)[C@]12NC[C@H]3C[C@H]1CN(Cc1cccc4ccccc14)[C@H]2[C@@H]3Cc1ccccc1 [IB-351] | 10 to 30
35 | CC(C)CC1C2C3C=NC1(C(=O)NCc1ccc4ccccc4c1)CC3CN2Cc1ccccc1 (centres unmarked) [IIF-102] | < 5
36 | CC(C)C[C@@H]1[C@@H]2[C@@H]3CN[C@@]1(C(=O)NCc1ccc(O)cc1)C[C@@H]3CN2Cc1ccc(F)cc1 [IF-482] | 10 to 30
37 | NC(=O)CN1C[C@@H]2C[C@@H]3CN[C@]2(C(=O)NCc2ccc(F)cc2)[C@@H]1[C@@H]3Cc1cccc2ccccc12 [IB-96] | 10 to 30
38 | N=C(N)NCCC[C@@H]1[C@@H]2[C@@H]3CN[C@@]1(C(=O)NCCO)C[C@@H]3CN2Cc1cccc2ccccc12 [IF-239] | 10 to 30
39 | CCCCCCNC(=O)[C@]12NC[C@H]3C[C@H]1CN(CCc1ccccc1)[C@H]2[C@@H]3CCCNC(=N)N [IB-256] | 10 to 30
40 | CC(C)C[C@@H]1[C@@H]2[C@@H]3CN[C@@]1(C(=O)NCc1ccc(O)cc1)C[C@@H]3CN2CCc1ccccc1 [IF-470] | 10 to 30
41 | CC(C)C[C@@H]1[C@@H]2[C@@H]3CN[C@@]1(C(=O)NCc1ccc(O)cc1)C[C@@H]3CN2Cc1cccc2ccccc12 [IF-473] | < 5
42 | CC(C)CN1C[C@H]2C[C@]3(C(=O)NCc4ccccc4)NC[C@H]2[C@H]1[C@H]3CC1CCCCC1 (relative stereo) [IF-38] | 10 to 30
43 | N=C(N)NCCCNC(=O)[C@]12NC[C@H]3C[C@H]1CN(CC1CCCCC1)[C@H]2[C@@H]3CCc1ccccc1 [IB-362] | < 5
44 | CC(C)CCN1C[C@@H]2C[C@@H]3CN[C@]2(C(=O)NCCC(=O)O)[C@@H]1[C@@H]3CC(C)C [IB-611] | 10 to 30
45 | CC(C)CC1C2C3C=NC1(C(=O)NCc1ccccc1)CC3CN2Cc1ccc(C(C)(C)C)cc1 (centres unmarked) [IIF-95] | < 5
46 | CC(C)C[C@@H]1[C@@H]2[C@@H]3CN[C@@]1(C(=O)NCc1ccccc1)C[C@@H]3CN2Cc1ccc(Cl)cc1 [IF-839] | 5 to 10

Row | Structure (SMILES) | IC50 [µM]
47 | CC(C)C[C@@H]1[C@H]2CN[C@@]3(C(=O)NCc4cccc(O)c4)[C@@H](C2)CN(Cc2ccc(N(C)C)cc2)[C@@H]13 (relative stereo) [IB-891] | 10 to 30
48 | CC(C)CCN1CC2CC3(C(=O)NCc4ccc(F)cc4)N=CC2C1C3CC(C)C (centres unmarked) [IIF-104] | 5 to 10
49 | NC(=O)CCNC(=O)[C@@]12C[C@@H]3CN(Cc4ccc(F)cc4)[C@@H]([C@@H]3CN1)[C@H]2Cc1cccc2ccccc12 [IF-539] | < 5
50 | CC(C)CCC1C2CNC3(C(=O)NCCc4ccccc4)C(C2)CN(Cc2ccc(O)cc2)C13 (centres unmarked) [IB-544] | 10 to 30
51 | CC(C)CCN1C[C@@H]2C[C@@H]3CN[C@]2(C(=O)NCCC(=O)O)[C@@H]1[C@@H]3Cc1cccc2ccccc12 [IB-381] | 10 to 30
52 | Cc1ccc(CN2C[C@H]3C[C@@]4(C(=O)NCc5ccccc5)[C@H](CC(C)C)[C@@H]2[C@@H]3CN4CC(C)C)cc1 [IF-856] | < 5
53 | CC(C)CN1C[C@@H]2C[C@@H]3CN[C@]2(C(=O)NCCO)[C@@H]1[C@@H]3Cc1cccc2ccccc12 [IB-687] | 10 to 30
54 | CCCCCCNC(=O)[C@@]12C[C@@H]3CN(CCC(C)C)[C@@H]([C@@H]3CN1)[C@H]2CC(C)C (relative stereo) [IF-546] | 10 to 30
55 | O=C(NCc1ccccc1)[C@]12NC[C@H]3C[C@H]1CN(CCO)[C@H]2[C@@H]3CCc1ccccc1 [IB-618] | < 5
56 | CC(C)C[C@@H]1[C@@H]2[C@@H]3CN[C@@]1(C(=O)NCCc1ccccc1)C[C@@H]3CN2CC1CCCCC1 [IF-711] | 10 to 30
57 | CC(C)CC[C@@H]1[C@@H]2[C@@H]3CN[C@@]1(C(=O)NCCc1ccccc1)C[C@@H]3CN2CC1CCCCC1 [IF-717] | < 5
58 | CCC1N[C@@]2(C(=O)NCc3ccccc3)C[C@@H]3CN(CC(C)C)[C@@H]([C@H]13)[C@H]2Cc1ccccc1 (relative stereo) [IF-69] | 10 to 30
59 | CC(C)CNC(=O)[C@]12NC[C@H]3C[C@H]1CN(CC(C)C)[C@H]2[C@@H]3CCc1ccccc1 [IB-633] | < 5
60 | CC(C)C[C@@H]1[C@@H]2[C@@H]3CN[C@@]1(C(=O)NCCc1ccccc1)C[C@@H]3CN2Cc1ccccc1 [IF-721] | < 5
61 | CC(C)CC[C@@H]1[C@@H]2[C@@H]3CN[C@@]1(C(=O)NCCC(N)=O)C[C@@H]3CN2CC(C)C [IF-300] | 10 to 30
62 | CC(C)CC[C@@H]1[C@@H]2[C@@H]3CN[C@@]1(C(=O)NCc1ccccc1)C[C@@H]3CN2Cc1ccc(F)cc1 [IF-743] | 10 to 30
63 | NC(=O)CCNC(=O)[C@]12NC[C@H]3C[C@H]1CN(Cc1ccc(O)cc1)[C@H]2[C@@H]3Cc1cccc2ccccc12 [IB-743] | < 5
64 | O=C(NCCO)[C@@]12C[C@@H]3CN(CC4CCCCC4)[C@@H]([C@@H]3CN1)[C@H]2Cc1cccc2ccccc12 [IF-619] | 10 to 30
65 | CC(C)CCNC(=O)[C@@]12C[C@@H]3CN(CCO)[C@@H]([C@@H]3CN1)[C@H]2Cc1ccccc1 [IF-656] | 10 to 30
66 | CC(C)CCNC(=O)[C@]12NC[C@H]3C[C@H]1CN(CC(C)C)[C@H]2[C@@H]3CCc1ccccc1 [IB-688] | < 5
67 | O=C(NCCO)[C@]12NC[C@H]3C[C@H]1CN(Cc1ccc(F)cc1)[C@H]2[C@@H]3CCc1ccccc1 [IB-669] | 10 to 30

Same assay, conditions: read-out: IC50

Row | Structure (SMILES) | IC50 [µM]
68 | Cc1cccc(C[C@@H]2[C@@H]3[C@@H]4CN[C@@]2(C(=O)NCc2ccccc2)C[C@@H]4CN3CC(C)C)c1 (relative stereo) [IF-13] | 13.1
69 | Cc1ccc(C[C@@H]2[C@@H]3[C@@H]4CN[C@@]2(C(=O)NCc2ccccc2)C[C@@H]4CN3CC(C)C)cc1 (relative stereo) [IF-14] | 14.1
70 | CC(C)CNC(=O)[C@]12NC[C@@H]3C[C@H]1CN(CC(C)C)[C@H]2[C@@H]3Cc1ccccc1 (relative stereo) [IB-3] | 19.6
71 | CCC1N[C@@]2(C(=O)NCc3ccccc3)C[C@@H]3CN(CC(C)C)[C@@H]([C@H]13)[C@H]2Cc1ccccc1 (relative stereo) [IF-69] | 16.5
